According to paper PMC12720098, “Prolintane analogs as hybrid monoamine transporter ligands: Structural determinants and species differences” (The Journal of Biological Chemistry, 2025):
Like-named read-outs stand apart in the source and are kept apart here.

Assays:
Type in all cases: cell-based
hSERT [1] = target: T1, hSERT (Homo sapiens, UniProt P31645); assay: Uptake inhibition assay ([3H]5-HT) in transfected HEK293 cells
T1 construct: expressed in transfected cells
Experimental: (§1) HEK293 cells stably expressing human monoamine transporters hSERT, hDAT or hNET were seeded into poly-D-lysine (PDL) coated 96-well plates with a density of approximately 36,000 cells per well 1 day prior to experiments. A day after seeding, the cell medium was replaced with 200 μl Krebs-HEPES-buffer (KHB; 120 mM NaCl, 3 mM KCl, 2 mM CaCl2·2H2O, 2 mM MgCl2·6H2O, 20 mM D-glucose, pH = 7.3). The test drugs were initially dissolved in Milli-Q H2O or dimethyl sulfoxide (DMSO) at a concentration of 10 to 100 mM. Then, cells were treated with the respective concentration of the test drug diluted in KHB for 5 min as a pre-incubation step. Subsequently, in the uptake step, the solution was replaced with 50 μl/well diluted drug solution and tritiated substrate (hDAT: 0.1 μM [^3H]DA; hNET: 0.02 μM [^3H]MPP^+; hSERT: 0.1 μM [^3H]5-HT) for 1 min (hDAT, hSERT) or 3 min (hNET). After incubation, cells were immediately washed with 200 μl KHB to stop uptake. Uptake was indirectly measured by quantifying beta emission with liquid scintillation counting (Wallac 1450 MicroBeta TriLux Liquid Scintillation Counter & Lumi; GMI). Therefore, 200 μl Ultima Gold XR scintillation cocktail (PerkinElmer, MA, USA) was added to each well.
(§2) Half-maximal inhibitory concentrations (IC50) were obtained from fitting a sigmoidal dose–response ( Y=Bottom+Top−Bottom/1+10^((LogIC50−X)·HillSlope) ) in GraphPad Prism 10.3.1 (GraphPad Software Inc.). Uptake inhibition data were evaluated by one-way ANOVA followed by Tukey's multiple comparisons test. Release data were analyzed using a two-way ANOVA (batch release) or a mixed-effects model with Geisser-Greenhouse correction (time-dependent traces) employing Šidák correction for comparing differences between compounds with or without the addition of monensin.

hSERT [2] = target: T1, hSERT; settings: batch release, % efflux of total uptake, compounds approximately at IC50 concentration
Experimental: (§3) Batch release assays were performed as described previously ([44]). In brief, HEK293 cells stably expressing monoamine transporters were seeded similar to the procedure used for uptake inhibition assays. A day after seeding cells were pre-loaded with 50 μl/well 0.015 μM [^3H]MPP^+ (hDAT, hNET), or 0.08 μM [^3H]5-HT (hSERT) for 20 min at 37 °C. Then cells were washed four times for 3 to 4 min each and further incubated with KHB or KHB + monensin. After 10 min of incubation, two (screening) to four (full traces; hSERT) 2 min incubations were performed to establish a baseline release without substance. […] Each fraction was transferred to an empty well in the 96-well plate. For screening, a known inhibitor (hDAT, hNET: 50 μM GBR12909) and releaser (hDAT, hNET: 10 μM S-(+)-amphetamine) were used as controls. Ultima Gold XR scintillation cocktail was added to the remaining cells, and each well contained a release fraction. The counted radioactivity in the respective fraction was expressed as a percentage of total radioactivity at the start of the fraction.
as §2

hDAT = target: T2, hDAT (Homo sapiens, UniProt Q01959); assay: Batch release assay ([3H]MPP+) in transfected HEK293 cells; settings: % efflux of total uptake, compounds approximately at IC50 concentration
T2 construct: expressed in transfected cells
T2 sequence (Q01959 whole entry): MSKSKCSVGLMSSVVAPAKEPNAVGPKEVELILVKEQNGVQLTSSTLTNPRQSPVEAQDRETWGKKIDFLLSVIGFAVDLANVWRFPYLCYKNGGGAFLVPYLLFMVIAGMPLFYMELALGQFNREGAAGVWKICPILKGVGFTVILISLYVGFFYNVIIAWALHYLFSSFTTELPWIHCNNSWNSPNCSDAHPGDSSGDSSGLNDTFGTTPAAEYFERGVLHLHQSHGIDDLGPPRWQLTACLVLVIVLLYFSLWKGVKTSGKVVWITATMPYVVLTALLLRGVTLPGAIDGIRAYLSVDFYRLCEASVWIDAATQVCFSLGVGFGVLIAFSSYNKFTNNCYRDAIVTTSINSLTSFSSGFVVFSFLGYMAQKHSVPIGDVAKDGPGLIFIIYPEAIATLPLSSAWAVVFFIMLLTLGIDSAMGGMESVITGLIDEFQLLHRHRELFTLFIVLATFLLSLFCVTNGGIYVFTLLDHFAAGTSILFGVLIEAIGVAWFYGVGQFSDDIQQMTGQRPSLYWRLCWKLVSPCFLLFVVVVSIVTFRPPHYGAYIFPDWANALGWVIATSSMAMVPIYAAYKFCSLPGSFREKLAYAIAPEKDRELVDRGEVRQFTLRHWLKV
Experimental: as §3, §2

hNET [3] = target: T3, hNET (Homo sapiens, UniProt P23975); assay: as above; settings: % efflux of total uptake, compounds approximately at IC50 concentration
T3 construct: expressed in transfected cells
T3 sequence (P23975 whole entry): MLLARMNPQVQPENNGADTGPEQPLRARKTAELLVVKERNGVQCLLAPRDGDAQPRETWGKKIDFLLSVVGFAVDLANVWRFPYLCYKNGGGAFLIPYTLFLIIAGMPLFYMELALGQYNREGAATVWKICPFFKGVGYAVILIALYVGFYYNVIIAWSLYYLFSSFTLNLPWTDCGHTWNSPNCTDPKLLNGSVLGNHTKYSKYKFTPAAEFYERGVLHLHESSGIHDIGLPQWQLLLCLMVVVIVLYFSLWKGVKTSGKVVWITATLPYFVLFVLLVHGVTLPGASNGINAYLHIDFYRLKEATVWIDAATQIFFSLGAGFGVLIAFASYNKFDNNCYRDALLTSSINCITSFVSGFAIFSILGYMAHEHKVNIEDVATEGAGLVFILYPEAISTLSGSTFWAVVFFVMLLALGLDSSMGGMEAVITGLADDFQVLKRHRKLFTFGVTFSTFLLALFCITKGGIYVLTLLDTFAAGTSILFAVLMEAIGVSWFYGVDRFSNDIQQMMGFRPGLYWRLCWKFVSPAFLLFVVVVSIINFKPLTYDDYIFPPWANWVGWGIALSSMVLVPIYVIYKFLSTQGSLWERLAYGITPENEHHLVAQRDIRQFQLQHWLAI
Experimental: as §3, §2

hSERT [4] = target: T1, hSERT; settings: drug alone vs drug + monensin (Mon)
Experimental: A day prior to the experiment, HEK293 cells stably expressing hSERT or rat SERT (rSERT) were seeded at a density of 100,000 cells per channel into 6 channel flow ibidi slides (Gräfelfing, Germany). On the day of the experiments, cells were preloaded with 0.1 μM [^3H]5-HT at 37 °C, 5% CO2 for 20 min. Subsequently, the slides were transferred to the superfusion apparatus ([59]). Cells were then washed with KHB for 15 min under a constant flow of 0.5 ml/min. Fractions were collected every 2 min in 8 ml vials containing 2 ml scintillation cocktail. Collection began with three baseline fractions using KHB, followed by four additional basal release fractions with KHB, either with or without 10 μM monensin. […] To assess residual radioactivity within the cells, they were lysed with 1% sodium dodecyl sulfate (SDS), and three final fractions were obtained. The measured tritiated substrate in each fraction was expressed as a percentage of the initial tritiated substrate present at the start of that fraction.
as §2

hNET [5] = target: T3, hNET; assay: Uptake inhibition assay ([3H]MPP+) in transfected HEK293 cells
Experimental: as §1, §2

T1 sequence (P31645 whole entry): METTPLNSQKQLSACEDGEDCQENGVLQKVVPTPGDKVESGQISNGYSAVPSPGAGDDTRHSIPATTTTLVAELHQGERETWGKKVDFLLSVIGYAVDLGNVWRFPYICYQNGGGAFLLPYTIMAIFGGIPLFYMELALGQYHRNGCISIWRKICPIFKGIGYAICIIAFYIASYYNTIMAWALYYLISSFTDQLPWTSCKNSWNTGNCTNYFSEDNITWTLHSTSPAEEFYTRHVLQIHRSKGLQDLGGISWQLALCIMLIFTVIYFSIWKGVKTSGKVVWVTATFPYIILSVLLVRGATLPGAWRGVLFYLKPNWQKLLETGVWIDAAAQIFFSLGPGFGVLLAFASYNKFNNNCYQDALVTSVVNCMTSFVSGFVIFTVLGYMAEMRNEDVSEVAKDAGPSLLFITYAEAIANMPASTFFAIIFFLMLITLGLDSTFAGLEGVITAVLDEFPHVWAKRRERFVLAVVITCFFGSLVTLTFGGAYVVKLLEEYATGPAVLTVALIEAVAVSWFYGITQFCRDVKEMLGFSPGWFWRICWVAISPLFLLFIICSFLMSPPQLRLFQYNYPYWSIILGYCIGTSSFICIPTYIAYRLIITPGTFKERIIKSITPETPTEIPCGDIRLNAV

SMILES | IC50 (hSERT [1]) [µM] | hSERT-mediated efflux, predicted (LS) mean diff, No mon - Mon (hSERT [2]) | hDAT-mediated efflux, predicted (LS) mean diff, No mon - Mon (hDAT) | hNET-mediated efflux, predicted (LS) mean diff, No mon - Mon (hNET [3]) | Mean diff, hSERT efflux ± Mon (Šídák's multiple comparisons test) (hSERT [4]; Row 1 (time fraction)) | Mean diff, hSERT efflux ± Mon (Šídák's multiple comparisons test) (hSERT [4]; Row 2 (time fraction)) | Mean diff, hSERT efflux ± Mon (Šídák's multiple comparisons test) (hSERT [4]; Row 3 (time fraction)) | Mean diff, hSERT efflux ± Mon (Šídák's multiple comparisons test) (hSERT [4]; Row 4 (time fraction)) | Mean diff, hSERT efflux ± Mon (Šídák's multiple comparisons test) (hSERT [4]; Row 5 (time fraction)) | Mean diff, hSERT efflux ± Mon (Šídák's multiple comparisons test) (hSERT [4]; Row 6 (time fraction)) | Mean diff, hSERT efflux ± Mon (Šídák's multiple comparisons test) (hSERT [4]; Row 7 (time fraction)) | Mean diff, hSERT efflux ± Mon (Šídák's multiple comparisons test) (hSERT [4]; Row 8 (time fraction)) | Mean diff, hSERT efflux ± Mon (Šídák's multiple comparisons test) (hSERT [4]; Row 9 (time fraction)) | Mean diff, hSERT efflux ± Mon (Šídák's multiple comparisons test) (hSERT [4]; Row 10 (time fraction)) | Mean diff, hSERT efflux ± Mon (Šídák's multiple comparisons test) (hSERT [4]; Row 11 (time fraction)) | Mean diff, hSERT efflux ± Mon (Šídák's multiple comparisons test) (hSERT [4]; Row 12 (time fraction)) | IC50 (hNET [5]) [µM]
CCCC(Cc1ccccc1F)N1CCCC1 (stereo not shown) [2-Fluoroprolintane, 1-[1-(2-fluorophenyl)pentan-2-yl]pyrrolidine] | 35.2 ± 9.25 | -6.392 | -0.6425 | 0.3867 | -0.05533 | -0.01811 | -0.031 | -0.05989 | -0.128 | -0.2267 | -0.3166 | -4.727 | -7.079 | -7.103 | -6.897 | -6.561 | 0.102 ± 0.022
CCCC(Cc1ccc(F)cc1)N1CCCC1 (stereo not shown) [4-Fluoroprolintane, 1-[1-(4-fluorophenyl)pentan-2-yl]pyrrolidine] | 19.6 ± 2.43 | -7.206 | -0.2875 | 0.3845 | -0,0007778 | 0,02200 | 0,004889 | -0,08044 | -0,1983 | -0,2323 | -0,3017 | -8,349 | -9,598 | -8,382 | -7,454 | -6,666 | 0.307 ± 0.097
